Patent US8673909B2, “Indole compounds and methods for treating visceral pain” (NeurAxon, Inc., priority 2007, dated 2014)
Counter-ions that a name gives are not always drawn. Like-named read-outs stand apart in the source and are kept apart here.

Columns and labels:
[1] = target: 5-HT1D (Bos taurus, UniProt F1MMU1); test: 5-HT1D binding assay (agonist radioligand), bovine caudate membranes
Experimental: (§1) 5-HT1D binding assays (agonist radioligand) were performed using bovine caudate membranes according to the methods of Heuring and Peroutka (J. Neurosci., 7: 894-903 (1987)). 5-HT1B (rat cerebral cortex) binding assays (agonist radioligand) were performed according to the method of Hoyer et. al. (Eur. J. Pharmacol., 118: 1-12 (1995)). For the purpose of result analysis, the specific ligand binding to the receptors is defined as the difference between the total binding and the nonspecific binding as determined in the presence of an excess of unlabelled ligand. The results are expressed as a percent of control specific binding obtained in the presence of the test compounds.

[2] = target: T1, 5-HT1B (Rattus norvegicus, UniProt P28564); test: 5-HT1B binding assay (agonist radioligand), rat cerebral cortex
T1 construct: from tissue; host or cells: rat cerebral cortex
T1 sequence (P28564 whole entry): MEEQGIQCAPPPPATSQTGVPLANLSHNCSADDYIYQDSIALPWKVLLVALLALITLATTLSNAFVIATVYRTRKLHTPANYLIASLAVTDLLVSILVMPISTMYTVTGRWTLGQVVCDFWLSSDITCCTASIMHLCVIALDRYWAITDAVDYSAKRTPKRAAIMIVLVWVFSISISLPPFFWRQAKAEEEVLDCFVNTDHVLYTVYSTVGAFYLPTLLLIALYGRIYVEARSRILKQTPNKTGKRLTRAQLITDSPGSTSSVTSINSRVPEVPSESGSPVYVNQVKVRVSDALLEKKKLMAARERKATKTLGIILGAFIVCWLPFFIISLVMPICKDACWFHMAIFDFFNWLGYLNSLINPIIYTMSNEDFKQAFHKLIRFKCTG
Experimental: as §1, with “compounds. IC50 values (concentration causing a half-maximal inhibition of control specific binding) and Hill coefficients (nH) were determined by non-linear regression analysis of the competition curves using Hill equation curve fitting and the inhibition constants (Ki) were calculated from the Cheng Prusoff equation (Ki=IC50/(1+(L/KD)), where L=concentration of radioligand in the assay, and KD=affinity of the radioligand for the receptor).” for “compounds.”

[3] = target: T2, Nitric oxide synthase (neuronal, human recombinant) nNOS (Homo sapiens, UniProt P29475); test: nNOS (human) enzyme assay, [3H]-L-arginine to L-citrulline; assay type: biochemical
T2 construct: purchased Axxora LLC ALX-201-068
T2 sequence (P29475 whole entry): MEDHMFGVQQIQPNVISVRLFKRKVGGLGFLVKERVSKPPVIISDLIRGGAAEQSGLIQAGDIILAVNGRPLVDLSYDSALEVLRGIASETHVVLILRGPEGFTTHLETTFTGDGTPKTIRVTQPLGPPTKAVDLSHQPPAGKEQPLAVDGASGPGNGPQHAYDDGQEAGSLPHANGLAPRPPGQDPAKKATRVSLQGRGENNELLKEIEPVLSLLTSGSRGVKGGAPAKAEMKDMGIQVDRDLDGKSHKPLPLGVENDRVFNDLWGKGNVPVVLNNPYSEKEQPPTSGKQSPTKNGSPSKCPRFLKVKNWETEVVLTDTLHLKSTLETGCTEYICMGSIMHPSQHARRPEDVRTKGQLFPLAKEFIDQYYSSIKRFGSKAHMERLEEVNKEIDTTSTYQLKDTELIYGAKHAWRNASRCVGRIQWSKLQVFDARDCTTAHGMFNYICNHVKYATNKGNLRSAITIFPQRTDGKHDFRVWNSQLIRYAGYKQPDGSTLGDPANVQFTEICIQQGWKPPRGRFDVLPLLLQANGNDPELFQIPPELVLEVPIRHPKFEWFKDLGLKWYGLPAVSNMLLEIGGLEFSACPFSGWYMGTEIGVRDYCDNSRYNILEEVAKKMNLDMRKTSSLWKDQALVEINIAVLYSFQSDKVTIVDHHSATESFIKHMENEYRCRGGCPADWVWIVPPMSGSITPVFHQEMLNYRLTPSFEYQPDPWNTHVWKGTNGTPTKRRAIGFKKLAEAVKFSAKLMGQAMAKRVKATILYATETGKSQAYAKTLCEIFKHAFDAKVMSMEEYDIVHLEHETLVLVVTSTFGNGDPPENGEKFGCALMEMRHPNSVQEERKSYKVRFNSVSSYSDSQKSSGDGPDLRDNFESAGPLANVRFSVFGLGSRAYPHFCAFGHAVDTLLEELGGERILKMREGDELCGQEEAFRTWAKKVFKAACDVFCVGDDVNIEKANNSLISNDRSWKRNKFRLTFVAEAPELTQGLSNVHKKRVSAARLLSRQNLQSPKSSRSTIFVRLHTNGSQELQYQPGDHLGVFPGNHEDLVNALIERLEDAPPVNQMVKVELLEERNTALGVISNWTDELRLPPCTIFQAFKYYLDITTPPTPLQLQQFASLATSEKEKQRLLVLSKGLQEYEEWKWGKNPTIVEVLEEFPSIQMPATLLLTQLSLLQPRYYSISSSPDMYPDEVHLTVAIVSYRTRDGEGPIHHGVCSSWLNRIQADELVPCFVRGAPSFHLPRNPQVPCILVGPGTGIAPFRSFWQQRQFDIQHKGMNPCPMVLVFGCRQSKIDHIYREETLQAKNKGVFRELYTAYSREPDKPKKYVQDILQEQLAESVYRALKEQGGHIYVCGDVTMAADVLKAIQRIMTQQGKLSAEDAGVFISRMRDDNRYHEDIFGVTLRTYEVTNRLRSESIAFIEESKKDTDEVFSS
Experimental: nNOS (Human), eNOS (Human) Enzyme Assay
Human nNOS and eNOS Protocol:
Procedure for Human nNOS and eNOS
Primary stock solutions of test compounds at a concentration of 6 mM are prepared. The primary stock solutions of each test compound are prepared freshly in distilled water on the day of study. […] Concentration range of test compound utilized for nNOS are 0.001 to 300 μM and for eNOS are 0.003 to 1000 μM. The vehicle of the test compound or inhibitor is used as blank control.
(§2) All incubations are performed in duplicate:
(§3) Prepare the reaction mixture on ice by adding the following components with a micropipette to a polypropylene microcentrifuge tube:
Total reaction volume is 60 μL.
(§4) Mix using a vortex mixer and incubate the above reaction mixture at 37° C. in an incubator for 30 minutes.
(§5) Add 400 μL of ice-cold Stop Buffer at the end of the incubation period to stop the reaction. (The EDTA in the Stop Buffer chelates all of the available calcium.)
(§6) Mix using a vortex mixer and transfer the reaction samples to spin cups and centrifuge using a microcentrifuge, at 13,000 rpm for 30 sec. at room temperature.
(§7) Remove the spin cups from the holder and transfer 450 μL of eluate (containing the unbound L-citrulline) to scintillation vials. Add 3 mL of scintillation fluid and quantify the radioactivity in a liquid scintillation counter.
Calculation of IC50 Values:
(§8) Data is analyzed using a Sigmoidal dose-response (variable slope) curve to determine the IC50 value of the test compound. Y=Bottom+(Top−Bottom)/(1+10^((Log IC50−X)*Hill Slope))

[4] = target: T3, Nitric oxide synthase (endothelial, human recombinant) eNOS (Homo sapiens, UniProt P29474); test: eNOS (human) enzyme assay, [3H]-L-arginine to L-citrulline; assay type: biochemical
T3 construct: purchased Axxora LLC ALX-201-070
T3 sequence (P29474 whole entry): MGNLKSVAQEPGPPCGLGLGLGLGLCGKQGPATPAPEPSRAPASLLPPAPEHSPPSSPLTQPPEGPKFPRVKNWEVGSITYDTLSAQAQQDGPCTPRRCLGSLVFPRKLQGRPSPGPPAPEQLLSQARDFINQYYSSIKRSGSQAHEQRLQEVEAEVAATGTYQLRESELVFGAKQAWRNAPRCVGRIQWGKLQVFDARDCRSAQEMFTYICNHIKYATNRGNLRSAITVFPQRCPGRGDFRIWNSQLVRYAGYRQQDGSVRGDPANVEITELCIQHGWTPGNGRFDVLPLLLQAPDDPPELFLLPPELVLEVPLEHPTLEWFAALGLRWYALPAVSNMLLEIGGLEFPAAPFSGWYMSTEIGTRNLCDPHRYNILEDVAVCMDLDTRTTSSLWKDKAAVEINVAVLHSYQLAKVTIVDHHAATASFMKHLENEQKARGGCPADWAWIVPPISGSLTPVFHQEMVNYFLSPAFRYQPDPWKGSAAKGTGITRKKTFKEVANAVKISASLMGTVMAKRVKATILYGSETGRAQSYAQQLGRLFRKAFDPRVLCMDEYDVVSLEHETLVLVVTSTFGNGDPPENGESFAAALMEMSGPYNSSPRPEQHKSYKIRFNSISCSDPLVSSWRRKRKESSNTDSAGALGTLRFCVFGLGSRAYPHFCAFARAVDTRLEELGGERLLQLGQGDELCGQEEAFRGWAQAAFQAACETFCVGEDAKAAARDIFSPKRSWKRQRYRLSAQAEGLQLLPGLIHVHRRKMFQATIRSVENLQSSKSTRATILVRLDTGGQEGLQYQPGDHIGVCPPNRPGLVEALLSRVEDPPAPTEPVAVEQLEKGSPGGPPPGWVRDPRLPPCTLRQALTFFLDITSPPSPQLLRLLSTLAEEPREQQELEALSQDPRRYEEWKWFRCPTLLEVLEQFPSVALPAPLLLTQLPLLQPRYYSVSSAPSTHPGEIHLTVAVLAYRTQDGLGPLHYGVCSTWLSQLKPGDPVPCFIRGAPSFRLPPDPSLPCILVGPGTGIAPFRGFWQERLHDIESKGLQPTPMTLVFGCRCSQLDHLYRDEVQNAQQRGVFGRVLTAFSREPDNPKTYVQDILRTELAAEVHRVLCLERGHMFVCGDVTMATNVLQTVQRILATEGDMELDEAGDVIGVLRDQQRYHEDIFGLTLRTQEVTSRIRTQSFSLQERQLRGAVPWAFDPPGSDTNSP
Experimental: Human nNOS and eNOS Protocol:
Procedure for Human nNOS and eNOS
Primary stock solutions of test compounds at a concentration of 6 mM are prepared. The primary stock solutions of each test compound are prepared freshly in distilled water on the day of study. […] Concentration range of test compound utilized for nNOS are 0.001 to 300 μM and for eNOS are 0.003 to 1000 μM. The vehicle of the test compound or inhibitor is used as blank control. […] The IC50 concentration of L-NAME was run in parallel as a control.
as §2, §3
Start the reaction by addition of the substrate (in 5 µL containing 1 μCi of [^3H]-L-Arginine+2.5 μM of unlabeled L-Arginine) to the reaction mixture. Total reaction volume is 60 μL.
as §4, §5, §6, §7
Calculation of IC50 Values:
as §8

[5] = target: Recombinant human inducible NOS (iNOS) (Homo sapiens, UniProt P35228); test: Human iNOS assay, radiometric; assay type: biochemical; settings: Table 10, human iNOS; read-out: iNOSh
Experimental: Recombinant human inducible NOS (iNOS) was produced in Baculovirus-infected Sf9 cells (ALEXIS). […] 15 μL of test substances are added to the mixture with the specific enzyme and pre-incubated at RT for 15 min. • 2. […] The incubation is carried out at 37° C. for 45 min. • 4. […] An aliquot 70 μL of the supernatant is added to 100 μL scintillation fluid. • 8.
The total volume of the reaction mixture is 150 μL in every well. All assays are performed at least in duplicate. Standard deviations are 10% or less.

[6] = tested on: rats with experimental pancreatitis; test: Pancreatitis visceral pain model (DBTC), referred abdominal hypersensitivity, von Frey; assay type: in vivo, rat
Experimental: Adult male Sprague Dawley rats (Harlan, Indianapolis, Ind.), weighing 150-200 g were maintained in a climate-controlled room with ad lib food and water on a 12-h light/dark cycle (lights on at 07:00 hours). All procedures followed the policies of the International Association for the Study of Pain and the NIH guidelines for the handling and use of laboratory animals. Studies were approved by the University of Arizona IACUC.
Pancreatitis was produced by a tail vein injection of dibutyltin dichloride (DBTC, Aldrich, Milwaukee, Wis., 0.25 cc) dissolved in 100% ethanol at a dose of 8 mg/kg under isofluorane anesthesia (2-3 liters/min, 4.0%/vol until anesthetized, then 2.5%/vol throughout the procedure) (Vera-Portocarrero et al., 2006). Control animals were injected with the vehicle solution only (100% ethanol, 0.25 cc).
Referred abdominal hypersensitivity in the pancreatitis model was quantified by measuring the number of withdrawals events evoked by application of a calibrated von Frey filament (determined by either abdominal withdrawal, licking of the abdominal area, or whole body withdrawal). Rats were placed inside Plexiglas boxes on an elevated fine fiberglass screen mesh and acclimated for 30 minutes before testing. A 4 g von Frey filament was applied from underneath through the mesh floor, to the abdominal area at different points on the surface. […] The mean occurrence of withdrawal events in each trial is expressed as the number of responses to 10 applications as previously described (Vera-Portocarrero et al., 2003).
Significant differences between each experimental group for the behavioral test across time were detected by a two-factor ANOVA follow by the Fishers Least Significance Difference post-hoc test. One-factor ANOVA was used to detect significant differences in behavioral outcomes within each experimental group over time. A linear regression analysis was used to detect the dose-dependency of the effects. Significance was established at the p<0.05 level.

[7] = Table 15, read-out: IC50 in μM (Human eNOS)
[8] = Table 11, bovine 1D receptor binding, read-out: 5HT1D

Chain of 5-HT1D (F1MMU1 1-377): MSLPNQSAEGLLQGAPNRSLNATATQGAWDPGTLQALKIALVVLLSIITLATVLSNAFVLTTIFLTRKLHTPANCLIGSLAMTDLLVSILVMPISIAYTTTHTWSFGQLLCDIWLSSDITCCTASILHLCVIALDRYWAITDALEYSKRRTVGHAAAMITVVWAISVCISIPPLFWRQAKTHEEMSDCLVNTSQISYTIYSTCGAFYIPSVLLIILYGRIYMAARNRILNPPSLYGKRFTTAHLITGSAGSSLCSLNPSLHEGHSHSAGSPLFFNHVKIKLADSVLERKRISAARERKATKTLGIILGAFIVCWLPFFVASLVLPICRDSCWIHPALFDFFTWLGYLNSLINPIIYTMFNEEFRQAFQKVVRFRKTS

## CNC1CCCC(c2c[nH]c3ccc(NC(=N)c4cccs4)cc23)C1 (racemic) [Compound (±)-20, N-(3-((1S,3R)-3-(Methylamino)cyclohexyl)-1H-indol-5-yl)thiophene-2-carboximidamide]
[1]; read-out: 5HT 1D, Table 14
  IC50: 2.8 µM
[2]; Table 14, read-out: 5HT 1B
  IC50: 20 µM

## N=C(Nc1ccc2[nH]cc(CCN3CCCC3)c2c1)c1cccs1 [Compound 25, N-(3-(2-(pyrrolidin-1-yl)ethyl)-1H-indol-5-yl)thiophene-2-carboximidamide]
[3]; IC50 in μM (Human nNOS), Table 15
  IC50: 0.427 µM
[3]; Table 15, selectivity ratio
  eNOS/nNOS: 23.2
[4]; [7]
  IC50: 9.92 µM

## N=C(Nc1ccc2[nH]cc(C3=CCN(CCO)CC3)c2c1)c1cccs1 [Compound 24, N-(3-(1-(2-hydroxyethyl)-1,2,3,6-tetrahydropyridin-4-yl)-1H-indol-5-yl)thiophene-2-carboximidamide]
[3]; Table 15, selectivity ratio
  eNOS/nNOS: 99
[3]; Table 15, read-out: IC50 in μM (Human nNOS)
  IC50: 0.748 µM
[4]; [7]
  IC50: 74.1 µM

## CN1CCC(c2c[nH]c3ccc(NC(=N)c4cccs4)cc23)C1 (racemic) [Compound 6, N-(3-(1-methylpyrrolidin-3-yl)-1H-indol-5-yl)thiophene-2-carboximidamide]
[3]; Table 10, human nNOS, read-out: nNOSh
  IC50: 0.4 µM
[3]; Table 10, ratio eNOS/nNOS
  e/n: 97
[4]; Table 10, human eNOS, read-out: eNOSh
  IC50: 38.7 µM
[5]
  IC50: 35 µM
[1]; [8]
  IC50: 0.19 µM
[2]; Table 11, rat 1B receptor binding
  IC50: 0.85 µM

## CNC1CCCC(c2c[nH]c3ccc(NC(=N)c4cccs4)cc23)C1 (single isomer, unassigned) [Compound 20b, N-(3-(3-(methylamino)cyclohexyl)-1H-indol-5-yl)thiophene-2-carboximidamide dihydrochloride]
[4]; Table 14, read-out: Human eNOS
  IC50: 75 µM
[1]; read-out: 5HT 1D, Table 14, listed as 20b (isomer-2), dihydrochloride
  IC50: 1.4 µM
[2]; Table 14, read-out: 5HT 1B
  IC50: 12 µM

## CN1CCC[C@@H]1Cc1c[nH]c2ccc(NC(=N)c3cccs3)cc12 [Compound 27, (R)—N-(3-((1-Methylpyrrolidin-2-yl)methyl)-1H-indol-5-yl)thiophene-2-carboximidamide]
[6]
  reversal of tactile allodynia in pancreatitis visceral pain model: reverts the tactile allodynia

## CNC1CCCC(c2c[nH]c3ccc(NC(=N)c4cccs4)cc23)C1 (single isomer, unassigned) [Compound 20a, N-(3-(3-(methylamino)cyclohexyl)-1H-indol-5-yl)thiophene-2-carboximidamide dihydrochloride]
[4]; Table 14, read-out: Human eNOS
  IC50: 49.3 µM
[1]; read-out: 5HT 1D, Table 14, listed as 20a (isomer-1), dihydrochloride
  IC50: 3.2 µM
[2]; Table 14, read-out: 5HT 1B
  IC50: 1.3 µM

## CCNC1CCC(c2c[nH]c3ccc(NC(=N)c4cccs4)cc23)C1 (mixture of isomers) [Compound 26, N-(3-(3-(ethylamino)cyclopentyl)-1H-indol-5-yl)thiophene-2-carboximidamide]
[3]; Table 15, selectivity ratio
  eNOS/nNOS: 55.6

## CCN1CC=C(c2c[nH]c3ccc(NC(=N)c4cccs4)cc23)CC1 [Compound 19, N-(3-(1-ethyl-1,2,3,6-tetrahydropyridin-4-yl)-1H-indol-5-yl)thiophene-2-carboximidamide]
[3]; Table 13, selectivity ratio
  eNOS/nNOS: 92.4
[3]; Table 13, read-out: Human nNOS
  IC50: 0.74 µM
[4]; Table 13, read-out: Human eNOS
  IC50: 68.4 µM

## CNS(=O)(=O)Cc1ccc2[nH]cc(CCN(C)C)c2c1 [Sumatriptan, reference compound]
[1]; [8]
  IC50: 0.059 µM
